Reference: the pKa sets of Baltruschat and Czodrowski (2020)

Conditions: acidic group

SMILES | pKa
O=C1CCC(=O)N1O | 6.04
NS(=O)(=O)c1ccc(P(=O)([O-])O)cc1 | 6.38
C[NH+](C)CCCCCCCCNC(=O)/C=N/O | 8.97
O=P(C1CCCCC1)(C1CCCCC1)C1CCCCC1 | 13.7
NCc1cccc(S(N)(=O)=O)c1 | 10.1
O=Cc1cc(Br)ccc1O | 7.4
O=C(O)c1ccccc1/N=C/C=C/c1ccccc1 | 6.12
O=[Se](O)c1ccc2ccccc2c1 | 4.67
N#CC(C(=O)O)c1ccccc1 (stereo unspecified) | 1.77
CCCCCCc1c(-c2ccccc2)nn(-c2ccccc2)c1O | 7.4
CC(C)[NH2+]CC(=O)O | 2.35
CCOC(=O)N1CCc2noc(O)c2CC1 | 4.7
Cc1cc(Cc2cc(C)c(O)c(C)c2)c([O-])c([N+](=O)[O-])c1 | 11.1
Oc1ccc(Cl)cc1 | 9.29
OCc1nc2ccccc2[nH]1 | 12.1
O=C(O)C[Se]c1ccc([N+](=O)[O-])cc1 | 3.46
Oc1cccc(O)c1O | 8.97
O=[N+]([O-])c1cccc([Se](=O)O)c1 | 4.07
Cc1nn(C)c(O)c1-c1ccccc1 | 10.9
O=C(O)[C@H](O)c1ccccc1[N+](=O)[O-] | 3.15
[NH3+]Cc1nnn[nH]1 | 2.62
Nc1ccc(B(O)O)cc1 | 9.17
CCCCCCCC(=O)NO | 9.19
CCOC(=O)c1c[nH+]c2cc([N+](=O)[O-])ccc2c1O | 4.1
CC/C=C/C(=O)O | 4.69

SMILES | pKa
Cn1cnc2[nH]c(=O)[nH]c(=O)c21 | 8.45
Oc1[nH]c2ccccc2[nH+]1 | -1.7
CCOC(=O)c1ccccc1-n1nc(O)c(CC)c1C | 12.4
COC(=O)[n+]1ccc(N)cc1 | 9.15
O=C([O-])c1cc([N+](=O)[O-])ccc1O | 10.1
O=C(O)[C@H]1CCCC[C@@H]1O | 4.68
Cc1ccc(O)c(CO)c1 | 10.2
O=C(O)c1cccc(/C=C/[N+](=O)[O-])c1 | 3.9
CC(c1ccccc1)[N+](=O)[O-] (stereo unspecified) | 7.39
Cc1nc(NS(=O)(=O)c2ccc(N)cc2)no1 | 4.4
C[n+]1cccc(C(=O)Cc2ccccc2)c1 | 10.3
[NH3+]C(CC(=O)O)C(=O)NC(CC(=O)O)C(=O)O (stereo unspecified) | 2.7
CC(=N\O)/C(CO)=N/O | 10.1
O=c1cc(-c2ccccc2)oc2c(O)cccc12 | 7.82
[O-]c1cc[nH+]cc1O | 9.6
Cc1ccc(C(=O)O)s1 | 3.76
O=C(O)[C@H]1C[C@@H]1Cl | 4.12
O=C(Nc1ccccc1)ONC(=O)c1ccccc1 | 6.4
Cc1cc(C#N)cc[n+]1O | -0.67
O=C1COC(=O)C1Cl (stereo unspecified) | 2.13
Nc1ccc(S(=O)(=O)Nc2ccn(-c3ccc([N+](=O)[O-])cc3)n2)cc1 | 6.94
O=C(O)[C@@H]1C[C@@H]1Br | 4.09
Cc1ccc2[nH]c(CO)nc2c1 | 11.5
Nc1ccc(S(=O)(=O)Nc2ccc(C(=O)O)cc2)cc1 | 4.02
Nc1ccncn1 | 18.4

SMILES | pKa
O=[N+]([O-])c1ccc(O)c(C[NH+]2CCOCC2)c1 | 5.61
O=C(O)CSC(c1ccccc1)(c1ccccc1)c1ccccc1 | 4.32
Cc1ccc(C(=O)O)cc1Br | 3.96
CC(C)([NH3+])C(=O)O | 2.39
C[NH+](C)Cc1ccc(O)cc1 | 8.83
Cc1cc(Cc2cc(O)ccc2C)c([O-])c([N+](=O)[O-])c1 | 10.4
O=CCC=O | 4.57
CC1(C)NC(=O)NC1=O | 9.19
CC(=O)/N=c1\sc(S(N)(=O)=O)nn1C | 7.3
CC(c1cccc(C(F)(F)F)c1)[N+](=O)[O-] (stereo unspecified) | 6.96
O=COO | 7.1
C[C@H]1CC[C@@H](C(=O)O)CC1 | 5.04
Cc1cc([O-])ccc1O | 11.8
C(CSCCc1nnn[nH]1)SCCc1nnn[nH]1 | 5
N#CC(C#N)=NNc1ccccc1C(F)(F)F | 5
O=C(O)c1ccnnc1 | 2.8
O=C(O)Cc1cccs1 | 3.85
Cc1cnnc2c(O)cccc12 | 8.34
O=NCC(=O)c1ccncc1 | 7.8
Fc1cccc(NC=S)c1 | 10.9
Cc1cc2nc3ccc(N(C)C)cc3nc2cc1N | 14.7
O=C1CC(=O)CC2(CCCCC2)C1 | 5.2
C[N+](C)(C)CCCC(=O)O | 4.02
O=C1COCC(=O)C1=O | 7.62
Nc1n[nH]c(N)c1/N=N/c1ccc(C(=O)O)cc1 | 4.68

Same assay, conditions: basic group

SMILES | pKa
O=C([O-])[C@@H]1Cc2[nH]cnc2C[NH2+]1 | 4.73
CC[NH+](CC)CC(C)Nc1c2ccc(Cl)cc2nc2ccc(OC)cc12 (stereo unspecified) | 7.15
Cc1ccc2cccc(C)c2n1 | 4.1
CCCCNC | 10.8
Cc1ccc2c(c1)N1CCN2CC1 | 5.83
CN(C)CCSCCN(C)C | 9.1
CCCCNCCC#N | 8.3
Cc1nc2ncccc2[nH]1 | 4.6
CCCCc1cccnn1 | 3.49
O=P(C1CCCCC1)(C1CCCCC1)C1CCCCC1 | 5.04
NCc1cccc(S(N)(=O)=O)c1 | 8.55
CCN1CCCC1CNS(=O)(=O)c1ccc(OC)c(OC)c1OC (stereo unspecified) | 8.7
c1ccc(CNc2nccs2)cc1 | 5.15
CCNc1ccc(C)cc1 | 5.72
NCC[NH3+] | 7.14
NNC(=O)C[NH3+] | 2.38
O=C(CCN1CCCCC1)c1ccccc1 | 9.23
CCN(CC)Cc1c([O-])c(Cl)cc(Cl)c1Cl | 11.8
O=[N+]([O-])c1ccc(/C=C/c2nnnn2-c2ccc([N+](=O)[O-])cc2)cc1 | -3.15
Cc1cnc2c(c1)c(C)c(C)c1cc(C)cnc12 | 5.54
CCOc1nccc([O-])n1 | 8.2
CC(C)C=O | 15.7

SMILES | pKa
[O-]c1nccc2c1cnc1ccccc12 | 11.3
COCCNc1cccc(C)c1 | 4.29
CN(C)c1ccncn1 | 6.35
CCOCCn1c(CN2CC[NH+](CCCCn3cc(C(=O)O)cn3)CC2)nc2ccccc21 | 4.9
CCCCN | 10.7
CC(C)C(N)C(=O)O (stereo unspecified) | 9.58
Cc1ccc(N(C)C)cc1 | 5.56
CCC(=O)OC(C)CN(C)C (stereo unspecified) | 8.26
C[C@@H]1CCN2CC[C@H](O)[C@H]12 | 10.9
CCN(CC)CC(=O)NC1c2ccccc2-c2ccccc21 | 7.98
OCc1nc2ccccc2[nH]1 | 4.82
Cc1ccc(NCCS)cc1 | 5.08
CN1CCN(C(c2ccccc2)c2ccc(Cl)cc2)CC1 (stereo unspecified) | 7.81
COc1ccc(C2NCCS2)cc1 (stereo unspecified) | 5.45
Cc1ccccc1/C(=N/CCCN(C)C)c1ccc2ccccc2c1 | 8.9
c1cnccn1 | 0.57
C#CC(C)(C)NC(C)(C)C=C | 8.2
Nc1ccc(B(O)O)cc1 | 3.71
CN(C)CCC(c1ccccc1)c1ccccc1 | 9.4
Cn1cnc2[nH]c(=O)[nH]c(=O)c21 | 0.87
CN(C)CCNC(=O)/C=N/[O-] | 9.43
Nc1nc2ccccc2nc1N | 4.7

SMILES | pKa
Nc1ccc([NH3+])c(N)c1 | 3.69
[NH3+]c1cccc(-c2nc3ccccc3s2)c1 | 0.07
C[C@@H]1CNC[C@H](C)N1 | 9.86
O=C(CCN1CCOCC1)c1cccc(Br)c1 | 6.8
NC(=S)NCc1ccccc1 | 0.86
c1coc(CNCCNCc2ccco2)c1 | 8.61
CCN(CC)CCCCCCCC(C)Nc1c2ccc(Cl)cc2nc2ccc(OC)cc12 (stereo unspecified) | 10.4
NC(N)=O | 0.4
CSc1ccccn1 | 3.62
C[C@@H](CC(C#N)(c1ccccc1)c1ccccc1)N(C)C | 8.31
Cn1nncc1Nc1ccccc1 | 1.73
CC1=NCCS1 | 5.29
NCC/C(N)=N/O | 9.15
Cc1ccnc(C)c1 | 6.77
Cc1ccc(C(=O)O)s1 | -0.57
[O-]c1cc2ccccc2nn1 | 8.61
Cc1ccc2[nH]c(CO)nc2c1 | 5.64
[NH3+]/N=C/c1ncnc2nc[nH]c12 | 2.8
C[NH+](C)CC(C)(C)CN | 7.4
Nc1ccncn1 | 5.7
COc1c2ccccc2nc2ccccc12 | 7
[O-]c1nc([O-])c2[nH]cnc2n1 | 11.1

SMILES | pKa
Cn1nccc1N | 4.23
CC1/C(=N/O)C[C@@H]2N=C(c3ccccc3)O[C@@]13[C@@H]1OC(=O)[C@H](C)[C@H]1CC[C@]23C (stereo partly specified) | 4.7
O=C([O-])[C@@H]1CCC[C@H](C(=O)[O-])N1 | 9.92
Cc1n[nH]c(C)c1C | 4.82
CNC(=S)c1ccccc1 | -2.5
CC(C)c1ccccn1 | 5.83
Oc1cccc2[nH]ncc12 | 8.65
Cn1c2ccccc2c(=N)c2ccccc21 | 11
CN(C(=O)c1ccccc1)c1cccnc1 | 3.66
C[NH2+]CCN | 7.49
Cc1ccccc1/C(=N\CCCN(C)C)c1ccccc1-c1ccccc1 | 9.25
N#Cc1cc(-c2ccccc2)nnc1NCCN1CCOCC1 | 6.5
Cc1cc(C)c2ccc3cccnc3c2n1 | 5.96
Nc1cccc(-c2ccccn2)n1 | 5.8
Cc1cc(Br)cc(C)c1N | 3.54
Nc1cccc2nn([C@@H]3C[C@@H](O)[C@H](CO)O3)nc12 | 2.4
c1ccc(CSc2ccncc2)cc1 | 5.41
CN1CCCN1C | 6.67
N#CC(C#N)=NNc1ccccc1C(F)(F)F | -0.7
CC(CCN(C)C)NN (stereo unspecified) | 9.23
Cc1ccnc(N)n1 | 4.2
Cc1cnnc2c(O)cccc12 | 3.18

SMILES | pKa
C#CCCCCN | 10.5
CCOCCn1c(CN2CCN(CCCCn3cc(C(=O)[O-])cn3)CC2)nc2ccccc21 | 8
O=C(NCCCN1CCOCC1)c1ccc(Cl)cc1 | 6.81
C=C(C)C(=O)NCCN(C)C | 8.54
O=C([O-])[C@@H]1O[C@H](Oc2cccc3cccnc23)[C@@H](O)[C@H](O)[C@H]1O | 4.62
CCc1ccc(C(=O)[O-])nc1 | 5.86
Cc1ccn(-c2ccccn2)n1 | 1.36
CCc1nc2cc3c(cc2[nH]1)CCCC3 | 6.64
COc1cccc2ccc(C)nc12 | 5.69
CN(C)c1ccc(C#N)cc1 | 1.78
C1CCC(C2CCCN2)CC1 (stereo unspecified) | 10.8
CCc1ccc(C)nn1 | 4.17
c1ccc(C2=Nc3ccccc3CO2)cc1 | 3.48
CC(=O)n1ccnc1 | 3.6
Cc1cc2nc3ccc(N(C)C)cc3nc2cc1N | 7.18
CC(C)N(C)/C=[NH+]/c1ccc(-c2c[nH]cn2)cc1 | 5.52
Cc1cnc2c(ccc3cccnc32)c1 | 5
Nc1n[nH]c(N)c1/N=N/c1ccc(C(=O)O)cc1 | 3.4
